From patent US11000033B2, “Ketone or oxime compound, and herbicide” (NISSAN CHEMICAL CORPORATION, priority 2014, dated 2021)

Key:
Format in all cases: in vivo
[1] = test system: Echinochloa oryzacola Vasing.; test: Test Example 2: herbicidal activity, application during weed generation in submerged conditions (symbol A); settings: Table 23; application herbicide amount 320 g/ha; grade 0-5 by criteria of Test Example 1
Summary of the method: (§1)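 Read-out: herbicidal effect on each species rated on a visual scale 3 weeks after treatment. Plants were raised together from seed in flooded alluvial soil (4 cm water) at 25° C. to 30° C. and treated at one to two leaves by water-surface application of diluted emulsion.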

Scirpus juncoides = test: Test Example 2: herbicidal activity, application during weed generation in submerged conditions (symbol B); settings: Table 23; application herbicide amount 320 g/ha; grade 0-5 by criteria of Test Example 1
Summary of the method: as §1

[2] = test system: directly sowed rice plant; test: Test Example 3: effect on crop by foliage application, Wagner pot (symbol b); settings: application herbicide amount 320 g/ha
Summary of the method: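 Wagner pot (1/10000 are), alluvial soil, submerged 0.1–0.5 cm; sown E. crus-galli var. crus-galli, L. chinensis, C. difformis, rice; greenhouse 25–30 °C.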

Avena fatua = test: Test Example 4: herbicidal effect by soil treatment (symbol I); settings: application herbicide amount 320 g/ha
Summary of the method: (§2)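 Seeds were sown in sterilized diluvial soil, covered with about 1.5 cm of soil, and the soil surface was sprayed with a water-diluted emulsion of the compound at a predetermined rate. Plants grew in a greenhouse at 25° C. to 30° C.; effects were scored visually 3 weeks after application.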

Lolium multiflorum Lam. = test: Test Example 4: herbicidal effect by soil treatment (symbol K); settings: application herbicide amount 320 g/ha
Summary of the method: as §2

Amaranthus retroflexus = test: Test Example 4: herbicidal effect by soil treatment (symbol N); settings: application herbicide amount 320 g/ha
Summary of the method: as §2

soybean = test: Test Example 4: effect on crop by soil treatment (symbol d); settings: application herbicide amount 320 g/ha
Summary of the method: (§3)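 Crop seed is sown in spots together with several weed species in a box of sterilized diluvial soil. It is covered by about 1.5 cm of soil and kept in a greenhouse held between 25° C. and 30° C.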

rice = test: Test Example 4: effect on crop by soil treatment (symbol b); settings: application herbicide amount 320 g/ha
Summary of the method: as §3

wheat [3] = test: Test Example 4: effect on crop by soil treatment (symbol e); settings: application herbicide amount 320 g/ha
Summary of the method: as §3

rapeseed [4] = test: Test Example 4: effect on crop by soil treatment (symbol g); settings: application herbicide amount 320 g/ha
Summary of the method: as §3

Abutilon theophrasti = test: Test Example 5: herbicidal effect by foliage application, plastic box (symbol M); settings: 320 g/ha, 3 weeks after application
Summary of the method: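 Post-emergence spray; diluvial soil (sterilized), ~1.5 cm seed cover; greenhouse 25–30° C; 14-day-old plants; water-diluted emulsion at predetermined dose; visual score at 3 wk post-treatment.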

rice plant = test: Test Example 5: effect on crop by foliage application, plastic box (symbol b); settings: 320 g/ha, 3 weeks after application
Summary of the method: (§4)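 Greenhouse culture at 25° C. to 30° C. followed spot-like sowing into sterilized diluvial soil, with seed covered by roughly 1.5 cm of soil.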

wheat [5] = test: Test Example 5: effect on crop by foliage application, plastic box (symbol e); settings: 320 g/ha, 3 weeks after application
Summary of the method: as §4

beet = test: Test Example 5: effect on crop by foliage application, plastic box (symbol f); settings: 320 g/ha, 3 weeks after application
Summary of the method: as §4

rapeseed [6] = test: Test Example 5: effect on crop by foliage application, plastic box (symbol g); settings: 320 g/ha, 3 weeks after application
Summary of the method: as §4

## CON=C(C)CC1CC(O)=C(c2c(C)cc(-c3ccc(Cl)cc3F)cc2C)C1=O (stereo not drawn) [6-084]
[1]
  Herbicidal effect grade, A: Echinochloa oryzacola Vasing.: 4 (Herbicidal ratio of 70% or higher and lower than 90%)
Scirpus juncoides
  Herbicidal effect grade, B: Scirpus juncoides: 3 (Herbicidal ratio of 40% or higher and lower than 70%)
[2]
  effect on crop b (directly sowed rice plant), grade 0-5: 5 (Herbicidal ratio of 90% or more (almost completely withered))
Avena fatua
  I: Avena fatua, herbicidal effect grade: 5 (Herbicidal ratio of 90% or more (almost completely withered))
Lolium multiflorum Lam.
  K: Lolium multiflorum Lam., herbicidal effect grade: 5 (Herbicidal ratio of 90% or more (almost completely withered))
Amaranthus retroflexus
  N: Amaranthus retroflexus, herbicidal effect grade: 4 (Herbicidal ratio of 70% or higher and lower than 90%)
soybean
  d: soybean, effect on crop grade: 5 (Herbicidal ratio of 90% or more (almost completely withered))
rice
  b: directly sowed rice plant, effect on crop grade: 2 (Herbicidal ratio of 20% or higher and lower than 40%)
Wheat [3]
  e: wheat, effect on crop grade: 2 (Herbicidal ratio of 20% or higher and lower than 40%)
Rapeseed [4]
  g: rapeseed, effect on crop grade: 1 (Herbicidal ratio of 5% or higher and lower than 20%)
Abutilon theophrasti
  M: Abutilon theophrasti, herbicidal effect (criteria of Test Example 1): 3 (Herbicidal ratio of 40% or higher and lower than 70%)
Rice plant
  b: directly sowed rice plant, effect on crop (criteria of Test Example 1): 5 (Herbicidal ratio of 90% or more (almost completely withered))
Wheat [5]
  e: wheat, effect on crop (criteria of Test Example 1): 4 (Herbicidal ratio of 70% or higher and lower than 90%)
beet
  f: beet, effect on crop (criteria of Test Example 1): 0 (Herbicidal ratio of 5% or lower (almost no effect))
Rapeseed [6]
  g: rapeseed, effect on crop (criteria of Test Example 1): 4 (Herbicidal ratio of 70% or higher and lower than 90%)

## CON=C(C)CC1CC(O)=C(c2c(C)cc(-c3ccc(F)c(Cl)c3)cc2C)C1=O (stereo not drawn) [6-085]
[1]
  Herbicidal effect grade, A: Echinochloa oryzacola Vasing.: 5 (Herbicidal ratio of 90% or more (almost completely withered))
Scirpus juncoides
  Herbicidal effect grade, B: Scirpus juncoides: 4 (Herbicidal ratio of 70% or higher and lower than 90%)
[2]
  effect on crop b (directly sowed rice plant), grade 0-5: 5 (Herbicidal ratio of 90% or more (almost completely withered))
Avena fatua
  Herbicidal effect grade, I: Avena fatua: 5 (Herbicidal ratio of 90% or more (almost completely withered))
Lolium multiflorum Lam.
  Herbicidal effect grade, K: Lolium multiflorum Lam.: 5 (Herbicidal ratio of 90% or more (almost completely withered))
Amaranthus retroflexus
  Herbicidal effect grade, N: Amaranthus retroflexus: 5 (Herbicidal ratio of 90% or more (almost completely withered))
soybean
  Effect on crop grade, d: soybean: 5 (Herbicidal ratio of 90% or more (almost completely withered))
rice
  Effect on crop grade, b: directly sowed rice plant: 1 (Herbicidal ratio of 5% or higher and lower than 20%)
Wheat [3]
  Effect on crop grade, e: wheat: 3 (Herbicidal ratio of 40% or higher and lower than 70%)
Rapeseed [4]
  Effect on crop grade, g: rapeseed: 4 (Herbicidal ratio of 70% or higher and lower than 90%)
Abutilon theophrasti
  M: Abutilon theophrasti, herbicidal effect (criteria of Test Example 1): 4 (Herbicidal ratio of 70% or higher and lower than 90%)
Rice plant
  b: directly sowed rice plant, effect on crop (criteria of Test Example 1): 5 (Herbicidal ratio of 90% or more (almost completely withered))
Wheat [5]
  e: wheat, effect on crop (criteria of Test Example 1): 5 (Herbicidal ratio of 90% or more (almost completely withered))
beet
  f: beet, effect on crop (criteria of Test Example 1): 4 (Herbicidal ratio of 70% or higher and lower than 90%)
Rapeseed [6]
  g: rapeseed, effect on crop (criteria of Test Example 1): 5 (Herbicidal ratio of 90% or more (almost completely withered))

## CON=C(C)CC1CC(OC(=O)C(C)CSC)=C(c2c(C)cc(-c3ccc(Cl)cc3)cc2C)C1=O (stereo not drawn) [6-086]
[1]
  Herbicidal effect grade, A: Echinochloa oryzacola Vasing.: 4 (Herbicidal ratio of 70% or higher and lower than 90%)
Scirpus juncoides
  Herbicidal effect grade, B: Scirpus juncoides: 4 (Herbicidal ratio of 70% or higher and lower than 90%)
[2]
  effect on crop b (directly sowed rice plant), grade 0-5: 5 (Herbicidal ratio of 90% or more (almost completely withered))
Avena fatua
  Herbicidal effect grade, I: Avena fatua: 4 (Herbicidal ratio of 70% or higher and lower than 90%)
Lolium multiflorum Lam.
  Herbicidal effect grade, K: Lolium multiflorum Lam.: 5 (Herbicidal ratio of 90% or more (almost completely withered))
Amaranthus retroflexus
  Herbicidal effect grade, N: Amaranthus retroflexus: 3 (Herbicidal ratio of 40% or higher and lower than 70%)
soybean
  Effect on crop grade, d: soybean: 5 (Herbicidal ratio of 90% or more (almost completely withered))
rice
  Effect on crop grade, b: directly sowed rice plant: 1 (Herbicidal ratio of 5% or higher and lower than 20%)
Wheat [3]
  Effect on crop grade, e: wheat: 2 (Herbicidal ratio of 20% or higher and lower than 40%)
Rapeseed [4]
  Effect on crop grade, g: rapeseed: 4 (Herbicidal ratio of 70% or higher and lower than 90%)
Abutilon theophrasti
  M: Abutilon theophrasti, herbicidal effect (criteria of Test Example 1): 3 (Herbicidal ratio of 40% or higher and lower than 70%)
Rice plant
  b: directly sowed rice plant, effect on crop (criteria of Test Example 1): 5 (Herbicidal ratio of 90% or more (almost completely withered))
Wheat [5]
  e: wheat, effect on crop (criteria of Test Example 1): 5 (Herbicidal ratio of 90% or more (almost completely withered))
beet
  f: beet, effect on crop (criteria of Test Example 1): 3 (Herbicidal ratio of 40% or higher and lower than 70%)
Rapeseed [6]
  g: rapeseed, effect on crop (criteria of Test Example 1): 4 (Herbicidal ratio of 70% or higher and lower than 90%)

## CON=C(C)CC1CC(O)=C(c2c(C)cc(-c3cc(Cl)cc(Cl)c3)cc2C)C1=O (stereo not drawn) [6-087]
[1]
  Herbicidal effect grade, A: Echinochloa oryzacola Vasing.: 2 (Herbicidal ratio of 20% or higher and lower than 40%)
Scirpus juncoides
  Herbicidal effect grade, B: Scirpus juncoides: 0 (Herbicidal ratio of 5% or lower (almost no effect))
[2]
  effect on crop b (directly sowed rice plant), grade 0-5: 5 (Herbicidal ratio of 90% or more (almost completely withered))
Avena fatua
  Herbicidal effect grade, I: Avena fatua: 0 (Herbicidal ratio of 5% or lower (almost no effect))
Lolium multiflorum Lam.
  Herbicidal effect grade, K: Lolium multiflorum Lam.: 3 (Herbicidal ratio of 40% or higher and lower than 70%)
Amaranthus retroflexus
  Herbicidal effect grade, N: Amaranthus retroflexus: 0 (Herbicidal ratio of 5% or lower (almost no effect))
soybean
  Effect on crop grade, d: soybean: 3 (Herbicidal ratio of 40% or higher and lower than 70%)
rice
  Effect on crop grade, b: directly sowed rice plant: 0 (Herbicidal ratio of 5% or lower (almost no effect))
Wheat [3]
  Effect on crop grade, e: wheat: 0 (Herbicidal ratio of 5% or lower (almost no effect))
Rapeseed [4]
  Effect on crop grade, g: rapeseed: 1 (Herbicidal ratio of 5% or higher and lower than 20%)
Abutilon theophrasti
  M: Abutilon theophrasti, herbicidal effect (criteria of Test Example 1): 0 (Herbicidal ratio of 5% or lower (almost no effect))
Rice plant
  b: directly sowed rice plant, effect on crop (criteria of Test Example 1): 1 (Herbicidal ratio of 5% or higher and lower than 20%)
Wheat [5]
  e: wheat, effect on crop (criteria of Test Example 1): 1 (Herbicidal ratio of 5% or higher and lower than 20%)
beet
  f: beet, effect on crop (criteria of Test Example 1): 0 (Herbicidal ratio of 5% or lower (almost no effect))
Rapeseed [6]
  g: rapeseed, effect on crop (criteria of Test Example 1): 4 (Herbicidal ratio of 70% or higher and lower than 90%)

## CON=C(C)CC1CC(O)=C(c2c(C)cc(-c3ccc(Cl)cc3Cl)cc2C)C1=O (stereo not drawn) [6-088]
[1]
  Herbicidal effect grade, A: Echinochloa oryzacola Vasing.: 4 (Herbicidal ratio of 70% or higher and lower than 90%)
Scirpus juncoides
  Herbicidal effect grade, B: Scirpus juncoides: 2 (Herbicidal ratio of 20% or higher and lower than 40%)
[2]
  effect on crop b (directly sowed rice plant), grade 0-5: 5 (Herbicidal ratio of 90% or more (almost completely withered))
Avena fatua
  Herbicidal effect grade, I: Avena fatua: 5 (Herbicidal ratio of 90% or more (almost completely withered))
Lolium multiflorum Lam.
  Herbicidal effect grade, K: Lolium multiflorum Lam.: 5 (Herbicidal ratio of 90% or more (almost completely withered))
Amaranthus retroflexus
  Herbicidal effect grade, N: Amaranthus retroflexus: 0 (Herbicidal ratio of 5% or lower (almost no effect))
soybean
  Effect on crop grade, d: soybean: 5 (Herbicidal ratio of 90% or more (almost completely withered))
rice
  Effect on crop grade, b: directly sowed rice plant: 0 (Herbicidal ratio of 5% or lower (almost no effect))
Wheat [3]
  Effect on crop grade, e: wheat: 0 (Herbicidal ratio of 5% or lower (almost no effect))
Rapeseed [4]
  Effect on crop grade, g: rapeseed: 3 (Herbicidal ratio of 40% or higher and lower than 70%)
Abutilon theophrasti
  M: Abutilon theophrasti, herbicidal effect (criteria of Test Example 1): 3 (Herbicidal ratio of 40% or higher and lower than 70%)
Rice plant
  b: directly sowed rice plant, effect on crop (criteria of Test Example 1): 5 (Herbicidal ratio of 90% or more (almost completely withered))
Wheat [5]
  e: wheat, effect on crop (criteria of Test Example 1): 4 (Herbicidal ratio of 70% or higher and lower than 90%)
beet
  f: beet, effect on crop (criteria of Test Example 1): 0 (Herbicidal ratio of 5% or lower (almost no effect))
Rapeseed [6]
  g: rapeseed, effect on crop (criteria of Test Example 1): 4 (Herbicidal ratio of 70% or higher and lower than 90%)
